In publication PMC6594058, “A Research‐inspired biochemistry laboratory module–combining expression, purification, crystallization, structure‐solving, and characterization of a flavodoxin‐like protein” (Biochemistry and Molecular Biology Education, 2019):

Target: T1, NrdI (Bacillus cereus, UniProt Q81G57)
T1 construct: untagged by purification route (IEX, SEC); pET-22b(+) XbaI/HindIII; E. coli BL21(DE3)
T1 sequence (Q81G57 1-119): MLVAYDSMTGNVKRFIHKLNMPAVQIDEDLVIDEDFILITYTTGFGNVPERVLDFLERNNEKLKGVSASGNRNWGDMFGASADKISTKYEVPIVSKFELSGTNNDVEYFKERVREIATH
Experiment: X-ray crystallography (students re-solve previously collected semiquinone data); UV-vis of co-purified cofactor with dithionite titration
Assay type: binding
Conditions: crystal in semiquinone state (FMNH•); 1.15 Å; UV-vis in 50 mM Tris-HCl pH 7.5; native bound cofactor

With Cc1cc2nc3c(=O)[nH]c(=O)nc-3n(C[C@H](O)[C@H](O)[C@H](O)COP(=O)(O)O)c2cc1C [FMN] the “X-ray crystallography (students re-solve previously collected semiquinone data);” value was “Overall structure of the B. cereus NrdI, with the FMN cofactor represented as sticks”.
